IC50 data for 19 compounds are collected here from patent US8541380B2, “C-aryl glucoside SGLT2 inhibitors and pharmaceutical compositions comprising same” (Green Cross Corporation, priority 2009, dated 2013).

The target in this assay is human SGLT2 (Homo sapiens (Human), UniProt P31639). The assay can be described thus: hSGLT2 inhibitory activity, sodium-dependent 14C-AMG glucose transport assay in CHO cells expressing hSGLT2. In kind it is cell-based. To be noted: 14C-AMG uptake, CHO cells expressing hSGLT2, 37° C. for 2 h. The text has this: Human SGLT2 (hSGLT2) gene was amplified by PCR from cDNA-Human Adult Normal Tissue Kidney (Invitrogen, Carlsbad, Calif.). The hSGLT2 sequence was cloned into pcDNA3.1(+) for mammalian expression and were stably transfected into Chinese hamster ovary (CHO) cells. SGLT2-expressing clones were selected based on resistance to G418 antibiotic (Geneticin®, Invitrogen, Carlsbad, Calif.) and activity in the ^14C-α-methyl-D-glucopyranoside (^14C-AMG) uptake assay.
Chain of human SGLT2 (P31639 whole entry): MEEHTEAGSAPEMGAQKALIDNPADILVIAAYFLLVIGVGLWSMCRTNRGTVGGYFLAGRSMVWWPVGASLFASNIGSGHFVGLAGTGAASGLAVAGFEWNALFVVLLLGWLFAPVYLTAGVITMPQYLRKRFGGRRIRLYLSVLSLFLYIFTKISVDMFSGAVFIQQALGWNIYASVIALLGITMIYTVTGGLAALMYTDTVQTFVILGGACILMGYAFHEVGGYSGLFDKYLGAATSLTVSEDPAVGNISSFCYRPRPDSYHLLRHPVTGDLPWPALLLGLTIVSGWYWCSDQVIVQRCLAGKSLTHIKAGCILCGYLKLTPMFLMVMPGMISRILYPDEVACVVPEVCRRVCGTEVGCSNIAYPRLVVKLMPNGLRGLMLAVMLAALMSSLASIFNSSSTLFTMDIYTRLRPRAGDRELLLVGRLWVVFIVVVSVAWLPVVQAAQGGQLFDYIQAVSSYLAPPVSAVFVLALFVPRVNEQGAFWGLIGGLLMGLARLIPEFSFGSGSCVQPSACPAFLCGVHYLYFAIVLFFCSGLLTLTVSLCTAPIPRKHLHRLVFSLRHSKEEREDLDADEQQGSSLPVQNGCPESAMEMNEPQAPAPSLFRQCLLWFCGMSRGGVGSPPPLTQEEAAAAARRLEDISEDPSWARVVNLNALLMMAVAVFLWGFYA
For sodium-dependent glucose transport assay, cells expressing hSGLT2 were seeded into a 96-well culture plate at a density of 5×10^4 cells/well in RPMI medium 1640 containing 10% fetal bovine serum. The cells were used 1 day after plating. They were incubated in pretreatment buffer (10 mM HEPES, 5 mM Tris, 140 mM choline chloride, 2 mM KCl, 1 mM CaCl2, and 1 mM MgCl2, pH 7.4) at 37° C. for 10 min. They were then incubated in uptake buffer (10 mM HEPES, 5 mM Tris, 140 mM NaCl, 2 mM KCl, 1 mM CaCl2, 1 mM MgCl2, and 1 mM ^14C-nonlabeled AMG pH 7.4) containing ^14C-labeled (8 uM) and inhibitor or dimethyl sulfoxide (DMSO) vehicle at 37° C. for 2 h. Cells were washed twice with washing buffer (pretreatment buffer containing 10 mM AMG at room temperature) and then the radioactivity was measured using a liquid scintillation counter.
As usually defined, the IC50 is the concentration at which inhibition is half-maximal. A high value points to a need for much substance. For the compound `Cc1ccc(-c2nnc(Cc3cc(C4O[C@H](CO)[C@@H](O)[C@H](O)[C@H]4O)ccc3Cl)s2)cc1` (stereo partly drawn) [Example 22, (3R,4R,5S,6R)-2-(4-chloro-3-((5-p-tolyl-1,3,4-thiadiazol-2-yl)methyl)phenyl)-6-(hydroxymethyl)-tetrahydro-2H-pyran-3,4,5-triol], inhibition was half-maximal at 103 nM (IC50).

`CC(Cc1nnc(Cc2cc(C3O[C@H](CO)[C@@H](O)[C@H](O)[C@H]3O)ccc2Cl)s1)c1ccccc1` (stereo partly drawn) [Example 26, (3R,4R,5S,6R)-2-(4-Chloro-3-((5-(2-phenylpropyl)-1,3,4-thiadiazol-2-yl)methyl)phenyl)-6-(hydroxymethyl)-tetrahydro-2H-pyran-3,4,5-triol]: the IC50 is 548 nM.

For `OC[C@H]1O[C@@H](c2ccc(Cl)c(Cc3nnc(C4CCCC4)s3)c2)[C@H](O)[C@@H](O)[C@@H]1O` [Example 19, (2S,3R,4R,5S,6R)-2-(4-Chloro-3-((5-cyclopentyl-1,3,4-thiadiazol-2-yl)methyl)phenyl)-6-(hydroxymethyl)tetrahydro-2H-pyran-3,4,5-triol], the IC50 is 445 nM.

The compound `OC[C@H]1OC(c2ccc(Cl)c(Cc3nnc(-c4ccncc4)s3)c2)[C@H](O)[C@@H](O)[C@@H]1O` (stereo partly drawn) [Example 20, (3R,4R,5S,6R)-2-(4-Chloro-3-((5-(pyridin-4-yl)-1,3,4-thiadiazol-2-yl)methyl)phenyl)-6-(hydroxymethyl)-tetrahydro-2H-pyran-3,4,5-triol] displayed a concentration for half-maximal inhibition (IC50) of 53 nM.

With `CCCc1nnc(Cc2cc([C@@H]3O[C@H](CO)[C@@H](O)[C@H](O)[C@H]3O)ccc2Cl)s1` [Example 31, (2S,3R,4R,5S,6R)-2-(4-Chloro-3-((5-propyl-1,3,4-thiadiazol-2-yl)methyl)phenyl)-6-(hydroxymethyl)-tetrahydro-2H-pyran-3,4,5-triol], the half-maximal inhibitory concentration (IC50) was 214 nM.

On to `Cc1ccc(Cc2cc([C@@H]3O[C@H](CO)[C@@H](O)[C@H](O)[C@H]3O)ccc2Cl)nn1` [Example 73, (2S,3R,4R,5S,6R)-2-(4-Chloro-3-((6-methylpyridazin-3-yl)methyl)phenyl)-6-(hydroxymethyl)-tetrahydro-2H-pyran-3,4,5-triol], for which the IC50 worked out at 293 nM.

For `Cc1cc(-c2nnc(Cc3cc([C@@H]4O[C@H](CO)[C@@H](O)[C@H](O)[C@H]4O)ccc3Cl)s2)ccn1` [Example 45, (2S,3R,4R,5S,6R)-2-(4-Chloro-3-((5-(2-methylpyridin-4-yl)-1,3,4-thiadiazol-2-yl)methyl)phenyl)-6-(hydroxymethyl)-tetrahydro-2H-pyran-3,4,5-triol], the midpoint of inhibition, the IC50, lay at 36.4 nM.

For `OC[C@H]1O[C@@H](c2ccc(Cl)c(Cc3nnc(CC(F)(F)F)s3)c2)[C@H](O)[C@@H](O)[C@@H]1O` [Example 39, (2S,3R,4R,5S,6R)-2-(4-Chloro-3-((5-(2,2,2-trifluoroethyl)-1,3,4-thiadiazol-2-yl)methyl)phenyl)-6-(hydroxymethyl)tetrahydro-2H-pyran-3,4,5-triol], the half-maximal inhibitory concentration (IC50) was found to be 758 nM.

For `OC[C@H]1O[C@@H](c2ccc(Cl)c(Cc3nnc(-c4cc5ccccc5o4)s3)c2)[C@H](O)[C@@H](O)[C@@H]1O` [Example 30, (2S,3R,4R,5S,6R)-2-(3-((5-(Benzofuran-2-yl)-1,3,4-thiadiazol-2-yl)methyl)-4-chlorophenyl)-6-(hydroxymethyl)-tetrahydro-2H-pyran-3,4,5-triol], the IC50 is 249 nM.

In turn, `CC(C)Cc1ccc(Cc2cc([C@@H]3O[C@H](CO)[C@@H](O)[C@H](O)[C@H]3O)ccc2Cl)nn1` [Example 77, (2S,3R,4R,5S,6R)-2-(4-Chloro-3-((6-isobutylpyridazin-3-yl)methyl)phenyl)-6-(hydroxymethyl)-tetrahydro-2H-pyran-3,4,5-triol] displayed an IC50 of 811 nM.

As for `CCSc1ccc(Cc2cc([C@@H]3O[C@H](CO)[C@@H](O)[C@H](O)[C@H]3O)ccc2Cl)nn1` [Example 80, (2S,3R,4R,5S,6R)-2-(4-Chloro-3-((6-(ethylthio)pyridazin-3-yl)methyl)phenyl)-6-(hydroxymethyl)-tetrahydro-2H-pyran-3,4,5-triol], the IC50 was 71.3 nM.

On to `Cc1cccc(-c2nnc(Cc3cc([C@@H]4O[C@H](CO)[C@@H](O)[C@H](O)[C@H]4O)ccc3Cl)s2)n1` [Example 44, (2S,3R,4R,5S,6R)-2-(4-Chloro-3-((5-(6-methylpyridin-2-yl)-1,3,4-thiadiazol-2-yl)methyl)phenyl)-6-(hydroxymethyl)-tetrahydro-2H-pyran-3,4,5-triol], for which half-maximal inhibition (IC50) was put at 638 nM.

On to `COC(=O)c1ccc(Cc2cc([C@@H]3O[C@H](CO)[C@@H](O)[C@H](O)[C@H]3O)ccc2Cl)nn1` [Example 49, Methyl 6-(2-chloro-5-((2S,3R,4R,5S,6R)-3,4,5-trihydroxy-6-(hydroxymethyl)-tetrahydro-2H-pyran-2-yl)benzyl)pyridazine-3-carboxylate], for which 201 nM corresponded to half-maximal inhibition (IC50).

On to `OC[C@H]1O[C@@H](c2ccc(Cl)c(Cc3nnc(-c4ccccc4)s3)c2)[C@H](O)[C@@H](O)[C@@H]1O` [Example 28, (2S,3R,4R,5S,6R)-2-(4-Chloro-3-((5-phenyl-1,3,4-thiadiazol-2-yl)methyl)phenyl)-6-(hydroxymethyl)-tetrahydro-2H-pyran-3,4,5-triol], for which the IC50 came out at 16.6 nM.

The compound `OC[C@H]1O[C@@H](c2ccc(Cl)c(Cc3nnc(C(F)(F)F)s3)c2)[C@H](O)[C@@H](O)[C@@H]1O` [Example 38, (2S,3R,4R,5S,6R)-2-(4-Chloro-3-((5-(trifluoromethyl)-1,3,4-thiadiazol-2-yl)methyl)phenyl)-6-(hydroxymethyl)tetrahydro-2H-pyran-3,4,5-triol] returned an IC50 of 155 nM.

The compound `OC[C@H]1O[C@@H](c2ccc(Cl)c(Cc3nnc4ccccc4n3)c2)[C@H](O)[C@@H](O)[C@@H]1O` [Example 88, (2S,3R,4R,5S,6R)-2-(3-(Benzo[e][1,2,4]triazin-3-ylmethyl)-4-chlorophenyl)-6-(hydroxymethyl)tetrahydro-2H-pyran-3,4,5-triol] displayed an IC50 of 491 nM.

In turn, `Cc1cc(-c2nnc(Cc3cc([C@@H]4O[C@H](CO)[C@@H](O)[C@H](O)[C@H]4O)ccc3Cl)s2)no1` [Example 12, (2S,3R,4R,5S,6R)-2-(4-Chloro-3-((5-(5-methylisoxazol-3-yl)-1,3,4-thiadiazol-2-yl)methyl)phenyl)-6-(hydroxymethyl)tetrahydro-2H-pyran-3,4,5-triol] gave a half-inhibitory concentration (IC50) of 257 nM.

`CCCCCCCCOc1ccc(Cc2cc([C@@H]3O[C@H](CO)[C@@H](O)[C@H](O)[C@H]3O)ccc2Cl)nn1` [Example 56, (2S,3R,4R,5S,6R)-2-(4-Chloro-3-((6-(octyloxy)pyridazin-3-yl)methyl)phenyl)-6-(hydroxymethyl)-tetrahydro-2H-pyran-3,4,5-triol] yielded an IC50 of 50.5 nM.

Regarding `COc1c(Cc2nnc(-c3ccco3)s2)cc([C@@H]2O[C@H](CO)[C@@H](O)[C@H](O)[C@H]2O)c2ccccc12` [Example 93, (2S,3R,4R,5S,6R)-2-(3-((5-(Furan-2-yl)-1,3,4-thiadiazol-2-yl)methyl)-4-methoxynaphthalen-1-yl)-6-(hydroxymethyl)-tetrahydro-2H-pyran-3,4,5-triol], the half-maximal inhibitory concentration (IC50) came out at 10.7 nM.
